Entries after “also recorded” stand apart in the source; their conditions may differ. Read-outs that look alike come from different tables or passages of the source.
Experiments:
Assay type in all cases: binding
human SSTR1 = molecular target: T1, human SSTR1 (Homo sapiens, UniProt P30872); test: Displacement of 125I-[Leu8,D-Trp22,Tyr25]-somatostatin-28 from cloned SSTR1 (receptor autoradiography on membrane pellets)
T1 construct: expressed in transfected cells; host or cells: CHO-K1 cells and CCL39 cells
Procedure: (§1) Generally, recombinant cells expressing the receptor are washed and homogenized to prepare a crude protein homogenate in a suitable buffer, as known in the art. In a typical assay, an amount of protein from the cell homogenate is placed into a small volume of an appropriate assay buffer at an appropriate pH. Candidate substances, such as potential SRIF agonists and antagonists, are added to the admixture in convenient concentrations, and the interaction between the candidate substance and the receptor polypeptide is monitored.
(§2) Receptor binding assays are performed on cloned SRIF receptors as generally set forth in Raynor et al. supra. Using such assays, one can generate KD values which are indicative of the concentration of a ligand necessary to occupy one-half (50%) of the binding sites on a selected amount of a receptor or the like, or alternatively, competitive assays can generate IC50 values which are indicative of the concentration of a competitive ligand necessary to displace a saturation concentration of a target ligand being measured from 50% of binding sites.
(§3) In vitro Bioassay: The various somatostatin analogs are tested in vitro for their ability to bind to isolated cloned receptors expressed on CHO-K1 cells and CCL39 cells. CHO-K1 cells are grown in Ham's F-12 medium, and CCL39 cells are grown in Dulbecco's modified Eagle's medium/Ham's F-12(1:1) mix, supplemented with 10% fetal bovine serum, 100 U/ml penicillin and 100 μg/ml streptomycin, in humidified air containing 5% CO2 at 37° C.
(§4) Cells are washed twice with and scraped into ice-cold 0.05 M Tris-HCl (pH 7.4), collected by centrifugation, and homogenized using a rotor/stator slash system in the same buffer. After centrifugation at 120 g for 5 min. at 4° C., the supernatant is collected and centrifuged again at 48,000 g for 30 min. at 4° C. The resulting pellet is resuspended in ice-cold Tris buffer, transferred into a microfuge tube, and centrifuged at 20,000 g for 15 min. at 4° C. After withdrawal of the supernatant, the membrane pellet is stored at −80° C.
(§5) Receptor autoradiography is performed on 20 μm thick cryostat sections of the membrane pellets, mounted on microscope slides, and then stored at −20° C. […] […] Unlabeled somatostatin-28 is run in parallel using the same increasing concentrations, as a control. IC50 values are calculated after quantification of the data using a computer-assisted image processing system as known in this art.

human SSTR2 = molecular target: T2, human SSTR2 (Homo sapiens, UniProt P30874); test: Displacement of 125I-[Leu8,D-Trp22,Tyr25]-somatostatin-28 from cloned SSTR2 (receptor autoradiography on membrane pellets)
T2 construct: expressed in transfected cells; host or cells: CHO-K1 cells and CCL39 cells
Procedure: as §1, §2, §3, §4, §5

human SSTR3 [1] = molecular target: T3, human SSTR3 (Homo sapiens, UniProt P32745); test: Displacement of 125I-[Leu8,D-Trp22,Tyr25]-somatostatin-28 from cloned SSTR3 (receptor autoradiography on membrane pellets); details: for binding strength and selectivity for SSTR3, in words: qualitative statement
T3 construct: expressed in transfected cells; host or cells: CHO-K1 cells and CCL39 cells
Procedure: as §1
as §2, with “sites. The peptide des-AA^1,2,4,5,12,13-[D-Agl^8(Me,2-naphthoyl)]SRIF inhibits the binding to SSTR3 of an iodinated SRIF-28 ligand that has strong affinity for all five receptors.” for “sites.”
as §3, §4
(§6) Receptor autoradiography is performed on 20 μm thick cryostat sections of the membrane pellets, mounted on microscope slides, and then stored at −20° C. For each of the tested compounds, complete displacement experiments are performed with the universal somatostatin ligand radioligand ^125I-[Leu^8,D-Trp^22,Tyr^25]-somatostatin-28 that binds with strong affinity to all five receptors. Increasing concentrations of the unlabeled peptide are used ranging from 0.1-1000 nM. Unlabeled somatostatin-28 is run in parallel using the same increasing concentrations, as a control. IC50 values are calculated after quantification of the data using a computer-assisted image processing system as known in this art.
(§7) The potencies of certain SRIF analogs to inhibit radioligand binding of ^125I-[Leu^8,D-Trp^22,[…]]SRIF-28 to the various cloned SRIF receptors are shown in the following table wherein the IC50 values are given in nanomolar concentration.

human SSTR4 = molecular target: T4, human SSTR4 (Homo sapiens, UniProt P31391); test: Displacement of 125I-[Leu8,D-Trp22,Tyr25]-somatostatin-28 from cloned SSTR4 (receptor autoradiography on membrane pellets)
T4 construct: expressed in transfected cells; host or cells: CHO-K1 cells and CCL39 cells
Procedure: as §1, §2, §3, §4, §5

human SSTR5 [2] = molecular target: T5, human SSTR5 (Homo sapiens, UniProt P35346); test: Displacement of 125I-[Leu8,D-Trp22,Tyr25]-somatostatin-28 from cloned SSTR5 (receptor autoradiography on membrane pellets)
T5 construct: expressed in transfected cells; host or cells: CHO-K1 cells and CCL39 cells
Procedure: as §1
as §2, with “sites. The peptide des-AA^1,2,4,5,12,13-[D-Agl^8(Me,2-naphthoyl)]SRIF inhibits the binding to SSTR3 of an iodinated SRIF-28 ligand that has strong affinity for all five receptors.” for “sites.”
as §3, §4
as §6, with “Increasing concentrations of the unlabeled peptide are used ranging from 0.1-1000 nM.” left out
as §7

human SSTR3 [3] = molecular target: T3, human SSTR3; test: Displacement of 125I-[Leu8,D-Trp22,Tyr25]-somatostatin-28 from cloned SSTR3 (receptor autoradiography on membrane pellets); details: 125I-labelled Tyr2 analog tested as radioligand on cloned receptor
human SSTR5 [4] = molecular target: T5, human SSTR5; test: Displacement of 125I-[Leu8,D-Trp22,Tyr25]-somatostatin-28 from cloned SSTR5 (receptor autoradiography on membrane pellets); details: 125I-labelled Tyr2 analog tested as radioligand on cloned receptor
[5] = inhibition of 125I-[Leu8,D-Trp22,Tyr24]SRIF-28 binding, cloned receptor, read-out: IC50 (nM) mSSTR1
[6] = inhibition of 125I-[Leu8,D-Trp22,Tyr24]SRIF-28 binding, cloned receptor, read-out: IC50 (nM) mSSTR2
[7] = inhibition of 125I-[Leu8,D-Trp22,Tyr24]SRIF-28 binding, cloned receptor, read-out: IC50 (nM) mSSTR3
[8] = inhibition of 125I-[Leu8,D-Trp22,Tyr24]SRIF-28 binding, cloned receptor, read-out: IC50 (nM) mSSTR4
[9] = inhibition of 125I-[Leu8,D-Trp22,Tyr24]SRIF-28 binding, cloned receptor, read-out: IC50 (nM) mSSTR5

T1 sequence (P30872 whole entry): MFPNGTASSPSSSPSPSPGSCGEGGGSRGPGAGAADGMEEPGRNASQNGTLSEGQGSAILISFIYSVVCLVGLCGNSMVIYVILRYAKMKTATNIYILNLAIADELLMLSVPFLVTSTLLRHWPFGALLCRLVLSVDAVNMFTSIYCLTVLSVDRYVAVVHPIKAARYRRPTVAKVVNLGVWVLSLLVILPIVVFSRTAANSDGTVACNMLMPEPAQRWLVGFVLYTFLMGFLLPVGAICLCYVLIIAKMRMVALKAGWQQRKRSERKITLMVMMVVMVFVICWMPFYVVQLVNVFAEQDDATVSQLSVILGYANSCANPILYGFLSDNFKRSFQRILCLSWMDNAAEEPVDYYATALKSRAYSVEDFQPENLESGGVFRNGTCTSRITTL
T4 sequence (P31391 whole entry): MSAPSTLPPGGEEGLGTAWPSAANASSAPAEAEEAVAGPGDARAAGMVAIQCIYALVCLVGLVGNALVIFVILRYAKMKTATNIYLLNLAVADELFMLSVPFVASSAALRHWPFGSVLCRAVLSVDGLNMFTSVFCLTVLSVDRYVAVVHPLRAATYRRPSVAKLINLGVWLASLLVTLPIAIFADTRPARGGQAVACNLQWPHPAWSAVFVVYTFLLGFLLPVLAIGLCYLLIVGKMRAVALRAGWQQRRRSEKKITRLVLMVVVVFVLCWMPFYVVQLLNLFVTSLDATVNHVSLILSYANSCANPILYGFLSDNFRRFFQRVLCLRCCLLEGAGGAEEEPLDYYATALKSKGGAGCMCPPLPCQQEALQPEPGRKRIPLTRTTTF
T5 sequence (P35346 whole entry): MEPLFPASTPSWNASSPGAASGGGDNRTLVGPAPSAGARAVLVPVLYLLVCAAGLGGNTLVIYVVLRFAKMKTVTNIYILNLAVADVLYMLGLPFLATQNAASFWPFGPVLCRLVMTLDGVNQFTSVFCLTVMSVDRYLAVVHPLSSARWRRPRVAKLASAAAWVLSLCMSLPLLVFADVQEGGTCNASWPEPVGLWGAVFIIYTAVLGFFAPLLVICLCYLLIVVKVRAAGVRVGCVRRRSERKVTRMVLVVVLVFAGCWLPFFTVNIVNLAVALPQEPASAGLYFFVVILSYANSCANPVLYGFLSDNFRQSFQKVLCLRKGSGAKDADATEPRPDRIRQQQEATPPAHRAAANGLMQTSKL
T2 sequence (P30874 whole entry): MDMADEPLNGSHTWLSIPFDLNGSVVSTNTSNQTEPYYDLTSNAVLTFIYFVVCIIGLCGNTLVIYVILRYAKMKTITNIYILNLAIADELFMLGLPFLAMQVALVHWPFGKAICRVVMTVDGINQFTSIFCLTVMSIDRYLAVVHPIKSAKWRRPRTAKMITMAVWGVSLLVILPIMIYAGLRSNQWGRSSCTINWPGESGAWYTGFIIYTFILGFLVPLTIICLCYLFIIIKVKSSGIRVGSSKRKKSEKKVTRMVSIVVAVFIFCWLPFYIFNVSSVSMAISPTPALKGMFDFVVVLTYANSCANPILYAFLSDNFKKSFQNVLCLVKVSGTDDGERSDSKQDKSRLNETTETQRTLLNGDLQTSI
T3 sequence (P32745 whole entry): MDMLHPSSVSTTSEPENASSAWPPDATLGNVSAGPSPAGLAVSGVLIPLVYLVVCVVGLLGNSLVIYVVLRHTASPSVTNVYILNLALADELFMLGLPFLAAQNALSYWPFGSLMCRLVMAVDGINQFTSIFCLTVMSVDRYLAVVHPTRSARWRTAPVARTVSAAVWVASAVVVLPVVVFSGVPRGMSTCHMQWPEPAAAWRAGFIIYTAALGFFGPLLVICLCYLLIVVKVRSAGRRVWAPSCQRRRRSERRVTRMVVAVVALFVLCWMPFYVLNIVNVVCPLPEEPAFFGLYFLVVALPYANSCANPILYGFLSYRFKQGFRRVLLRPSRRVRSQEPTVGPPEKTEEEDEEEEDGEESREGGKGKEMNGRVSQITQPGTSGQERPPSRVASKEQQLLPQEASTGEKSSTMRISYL

IC50 (human SSTR1; [5])	IC50 (human SSTR2; [6])	relative potency at SSTR3 by comparison to SRIF-28 (human SSTR3 [1]; binding affinity relative to SRIF-28 (=1))	IC50 (human SSTR3 [1]; [7])	IC50 (human SSTR4; [8])	IC50 (human SSTR5 [2]; [9])	IC50 (human SSTR1; iodinated SRIF-28 ligand, cloned human receptor, read-out: concentration below which no binding to human SSTR1)	IC50 (human SSTR2; iodinated SRIF-28 ligand, cloned human receptor, read-out: concentration below which no binding to human SSTR2)	IC50 (human SSTR3 [1]; iodinated SRIF-28 ligand, cloned human receptor, read-out: IC50 at cloned human SSTR3)	IC50 (human SSTR4; iodinated SRIF-28 ligand, cloned human receptor, read-out: concentration below which no binding to human SSTR4)	IC50 (human SSTR5 [2]; iodinated SRIF-28 ligand, cloned human receptor, read-out: concentration below which no binding to human SSTR5)	binding of the radioiodinated analog to SSTR5 (human SSTR5 [4])	Compound	binding strength and selectivity for SSTR3, in words (human SSTR3 [1]; listed as Peptide 2F)	binding strength and selectivity for SSTR3, in words (human SSTR3 [1])	binding of the radioiodinated analog to SSTR3 (human SSTR3 [3])
> 10000 nM	> 10000 nM	about 1.4	6.7 ± 2.6 nM	> 10000 nM	> 10000 nM							C[C@@H](O)[C@@H]1NC(=O)[C@H](CCCCN)NC(=O)[C@@H](N(C)C(=O)c2ccc3ccccc3c2)NC(=O)[C@H](Cc2ccc(O)cc2)NC(=O)[C@H](Cc2ccccc2)NC(=O)[C@H](NC(N)=O)CSSC[C@@H](C(=O)O)NC(=O)[C@H](Cc2ccccc2)NC1=O [Peptide No. 2F, (cyclo 3-14)Cbm-D-Cys-Phe-Tyr-D-Agl(Me,2Np)-Lys-Thr-Phe-Cys-OH]	bind strongly and selectively to SSTR3; also recorded: binding strength essentially equal to that of SRIF-28		
> 10000 nM	> 1000 nM		80 nM	> 1000 nM	> 1000 nM	> 1000 nM	> 1000 nM	~80 nM	> 1000 nM	> 1000 nM		C[C@@H](O)[C@@H]1NC(=O)[C@H](CCCCN)NC(=O)[C@@H](Cc2ccc3ccccc3c2)NC(=O)[C@H](N(C)C(=O)c2ccccc2)NC(=O)[C@H](Cc2ccccc2)NC(=O)[C@@H](N)CSSC[C@@H](C(=O)O)NC(=O)[C@H](Cc2ccccc2)NC1=O [Peptide No. 3, (cyclo 3-14)H-Cys-Phe-Agl(Me,Bz)-D-2Nal-Lys-Thr-Phe-Cys-OH]		bind selectively to SSTR3; also recorded: selectively binds SSTR3	
											No specific binding	(cyclo)H-Tyr-Cys-Phe-Phe-D-Agl(Me,2Np)-Lys-Thr-Phe-Cys-OH [Peptide No. 4]			continues to bind strongly to SSTR3; also recorded: effectively binds to SSTR3 to about the same extent as Peptide No. 2B

Reference: patent publication US6579967B1, “Receptor-selective somatostatin analogs” (The Salk Institute for Biological Studies, priority 1999, dated 2003)
